From PubChem BioAssay (NCI)
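How tested: cells in 96-well plates exposed to compound for 48 hours at five concentrations. GI50 marks 50% less growth. TGI denotes the concentration required for complete inhibition of growth.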

What was measured:
Experiment in all cases: inhibition of tumour cell growth, NCI panel, 48 h
SNB-78 CNS = tested on: SNB-78 CNS
LXFL 529 NSCLC = tested on: LXFL 529 NSCLC
TK-10 renal = tested on: TK-10 renal
XF 498 CNS = tested on: XF 498 CNS
RPMI-8226 leukemia = tested on: RPMI-8226 leukemia
DMS 273 small cell lung = tested on: DMS 273 small cell lung
BT-549 breast = tested on: BT-549 breast
HS 578T breast = tested on: HS 578T breast
MCF7 breast = tested on: MCF7 breast
T-47D breast = tested on: T-47D breast
DU-145 prostate = tested on: DU-145 prostate

Cc1cccc(NC(=O)CC#N)c1Cl
TGI (SNB-78 CNS): > 100 µM | TGI (LXFL 529 NSCLC): > 100 µM | TGI (TK-10 renal): > 100 µM | TGI (XF 498 CNS): > 100 µM | TGI (RPMI-8226 leukemia): > 100 µM | TGI (DMS 273 small cell lung): > 100 µM

CC(Oc1ccc2cc(C(=O)c3ccccc3)c(=O)oc2c1)C(=O)O (stereo not drawn)
TGI (SNB-78 CNS): > 100 µM | TGI (LXFL 529 NSCLC): > 100 µM | TGI (TK-10 renal): > 100 µM | TGI (XF 498 CNS): > 100 µM

Cc1ccc(C2=C(c3ccccc3)C(O)(c3ccc(C)cc3)C(c3ccccc3)=C2c2ccc(C)cc2)cc1
TGI (SNB-78 CNS): > 100 µM | TGI (LXFL 529 NSCLC): > 100 µM | TGI (TK-10 renal): > 100 µM | TGI (XF 498 CNS): > 100 µM | TGI (RPMI-8226 leukemia): > 100 µM | TGI (DMS 273 small cell lung): > 100 µM

O=C([O-])c1ccccc1Nc1ccccc1[O-].[Ni+3].[OH3+].[OH3+].[OH3+]
GI50 (SNB-78 CNS): > 100 µM | TGI (SNB-78 CNS): > 100 µM | GI50 (LXFL 529 NSCLC): > 100 µM | TGI (LXFL 529 NSCLC): > 100 µM | GI50 (RPMI-8226 leukemia): > 100 µM | TGI (RPMI-8226 leukemia): > 100 µM

CCN(CC)CCOc1ccc(C(=C2CCCCC2)c2ccc(OCCN(CC)CC)cc2)cc1
TGI (LXFL 529 NSCLC): 3.06 µM | TGI (TK-10 renal): 2.89 µM | TGI (XF 498 CNS): 2.29 µM | TGI (RPMI-8226 leukemia): 4.94 µM | TGI (DMS 273 small cell lung): 2.93 µM

CC(=O)OCC1OC(Sc2ccccn2)C=CC1OC(C)=O (stereo not drawn)
TGI (LXFL 529 NSCLC): > 100 µM | TGI (TK-10 renal): > 100 µM | TGI (XF 498 CNS): > 100 µM | TGI (DMS 273 small cell lung): > 100 µM

c1ccc(C2N3CCCCC3[C@@H]3c4[nH]c5ccccc5c4CCN23)cc1 (stereo partly drawn)
TGI (SNB-78 CNS): > 100 µM | TGI (LXFL 529 NSCLC): > 100 µM | TGI (TK-10 renal): > 100 µM | TGI (XF 498 CNS): > 100 µM | TGI (RPMI-8226 leukemia): > 100 µM | TGI (DMS 273 small cell lung): > 100 µM

O=c1[nH]c(/C=C(\O)c2ccncc2)nc2ccccc12
TGI (SNB-78 CNS): > 100 µM | TGI (TK-10 renal): > 100 µM | TGI (RPMI-8226 leukemia): > 100 µM

CCC(/C(=N\Nc1c(Cl)cc(Cl)cc1Cl)c1ccccc1)n1ccnc1C (stereo not drawn)
TGI (SNB-78 CNS): 42.2 µM | TGI (LXFL 529 NSCLC): 25.8 µM | TGI (TK-10 renal): 28.2 µM | TGI (RPMI-8226 leukemia): 41 µM | TGI (DMS 273 small cell lung): 19.7 µM

CN(C)CCC1(C2=CCCC2)CC/C(=C\c2ccccc2)C1=O (stereo not drawn)
TGI (SNB-78 CNS): 46.2 µM | TGI (LXFL 529 NSCLC): 29.6 µM | TGI (TK-10 renal): 29 µM | TGI (RPMI-8226 leukemia): 35.1 µM | TGI (DMS 273 small cell lung): 29 µM

Oc1cc2c(cc1O)-c1[nH]ncc1CC2
TGI (SNB-78 CNS): > 100 µM | TGI (LXFL 529 NSCLC): > 100 µM | TGI (TK-10 renal): > 100 µM | TGI (XF 498 CNS): 86.7 µM | TGI (DMS 273 small cell lung): > 100 µM

COC(=O)C(Cc1nc2ccccc2[nH]c1=O)C(=O)C(=O)Nc1ccc(OC)cc1[N+](=O)[O-] (stereo not drawn)
TGI (SNB-78 CNS): > 100 µM | TGI (LXFL 529 NSCLC): > 100 µM | TGI (TK-10 renal): > 100 µM | TGI (XF 498 CNS): > 100 µM | TGI (RPMI-8226 leukemia): > 100 µM

O=C(c1ccc2c3c(ccc(C(=O)C(F)(F)F)c13)CC2)C(F)(F)F
TGI (SNB-78 CNS): > 100 µM | TGI (LXFL 529 NSCLC): > 100 µM | TGI (TK-10 renal): > 100 µM | TGI (XF 498 CNS): 50.2 µM | TGI (DMS 273 small cell lung): > 100 µM

O=C1C(N2C(=O)c3ccccc3C2=O)CN1C(COCc1ccccc1)c1ccc(OCc2ccccc2)cc1 (stereo not drawn)
TGI (SNB-78 CNS): > 100 µM | TGI (LXFL 529 NSCLC): > 100 µM | TGI (TK-10 renal): > 100 µM | TGI (XF 498 CNS): > 100 µM | TGI (RPMI-8226 leukemia): > 100 µM | TGI (DMS 273 small cell lung): > 100 µM

COc1ccc(C(=O)O)c(Cc2ccc3ccccc3c2)c1
TGI (SNB-78 CNS): > 100 µM | TGI (LXFL 529 NSCLC): > 100 µM | TGI (TK-10 renal): > 100 µM | TGI (XF 498 CNS): > 100 µM | TGI (RPMI-8226 leukemia): > 100 µM | TGI (DMS 273 small cell lung): > 100 µM

CSc1ccc2c(cc1=O)[C@@H](NC(=O)c1ccc(F)cc1)CCc1cc(O)c(O)c(O)c1-2
TGI (SNB-78 CNS): > 100 µM | TGI (LXFL 529 NSCLC): > 100 µM | TGI (TK-10 renal): > 100 µM | TGI (RPMI-8226 leukemia): > 100 µM | TGI (DMS 273 small cell lung): > 100 µM

CCCCCCCCCC(CCCC(O)CC(=O)O)OC1OC(COC2OC(C)C(O)C(O)C2O)C(O)C(O)C1OC1OC(CO)C(O)C(O)C1OC1OC(C)C(O)C(O)C1O (stereo not drawn)
GI50 (TK-10 renal): > 40 µM | TGI (TK-10 renal): > 40 µM | GI50 (BT-549 breast): > 40 µM | TGI (BT-549 breast): > 40 µM | GI50 (HS 578T breast): > 40 µM | TGI (HS 578T breast): > 40 µM | GI50 (RPMI-8226 leukemia): > 40 µM | TGI (RPMI-8226 leukemia): > 40 µM | GI50 (MCF7 breast): > 40 µM | TGI (MCF7 breast): > 40 µM | GI50 (T-47D breast): > 40 µM | TGI (T-47D breast): > 40 µM | GI50 (DU-145 prostate): > 40 µM | TGI (DU-145 prostate): > 40 µM

CC(O[Si](C)(C)C)C1C=CC(C)n2c(=O)n(-c3ccccc3)c(=O)n21 (stereo not drawn)
TGI (SNB-78 CNS): > 100 µM | TGI (TK-10 renal): > 100 µM | TGI (RPMI-8226 leukemia): > 100 µM

CCC/C(=N\NC(=O)c1cc2ccccc2cc1O)C(CC)C(=O)CCC(=O)N(Cc1ccccc1)Cc1ccccc1 (stereo not drawn)
TGI (SNB-78 CNS): > 100 µM | TGI (LXFL 529 NSCLC): > 100 µM | TGI (TK-10 renal): > 100 µM | TGI (RPMI-8226 leukemia): > 100 µM | TGI (DMS 273 small cell lung): 52.8 µM

Cc1ccc(S(=O)(=O)n2cc(-c3nnnn3-c3ccc(Cl)cc3)c(=O)c3ccccc32)cc1
GI50 (TK-10 renal): > 100 µM | TGI (TK-10 renal): > 100 µM | GI50 (BT-549 breast): > 100 µM | TGI (BT-549 breast): > 100 µM | GI50 (HS 578T breast): > 100 µM | TGI (HS 578T breast): > 100 µM | GI50 (RPMI-8226 leukemia): 21.9 µM | TGI (RPMI-8226 leukemia): 59 µM | GI50 (MCF7 breast): 80.6 µM | TGI (MCF7 breast): > 100 µM | GI50 (T-47D breast): 57.9 µM | TGI (T-47D breast): > 100 µM | GI50 (DU-145 prostate): > 100 µM | TGI (DU-145 prostate): > 100 µM

N=c1ccn2c(n1)O[C@@H]1[C@@H](O)[C@H](CO)O[C@@H]12
GI50 (TK-10 renal): > 100 µM | TGI (TK-10 renal): > 100 µM | GI50 (BT-549 breast): 41.3 µM | TGI (BT-549 breast): > 100 µM | GI50 (HS 578T breast): > 100 µM | TGI (HS 578T breast): > 100 µM | GI50 (RPMI-8226 leukemia): > 100 µM | TGI (RPMI-8226 leukemia): > 100 µM | GI50 (MCF7 breast): 0.234 µM | TGI (MCF7 breast): > 100 µM | GI50 (T-47D breast): 8.96 µM | TGI (T-47D breast): > 100 µM | GI50 (DU-145 prostate): 2.42 µM | TGI (DU-145 prostate): > 100 µM

CCOC(=O)/C=C/c1ccccn1
TGI (SNB-78 CNS): > 100 µM | TGI (LXFL 529 NSCLC): > 100 µM | TGI (TK-10 renal): > 100 µM | TGI (XF 498 CNS): > 100 µM | TGI (RPMI-8226 leukemia): > 100 µM

O=C(CN1CCN(c2ccc(Cl)cc2)CC1)N1CCN(c2nnc(-c3ccccc3)c(-c3ccccc3)n2)CC1
GI50 (TK-10 renal): > 100 µM | TGI (TK-10 renal): > 100 µM | GI50 (BT-549 breast): 3.14 µM | TGI (BT-549 breast): > 100 µM | GI50 (HS 578T breast): 51.6 µM | TGI (HS 578T breast): > 100 µM | GI50 (RPMI-8226 leukemia): 2.77 µM | TGI (RPMI-8226 leukemia): > 100 µM | GI50 (MCF7 breast): 3.38 µM | TGI (MCF7 breast): > 100 µM | GI50 (T-47D breast): 2 µM | TGI (T-47D breast): > 100 µM | GI50 (DU-145 prostate): > 100 µM | TGI (DU-145 prostate): > 100 µM

O=C1C(Cl)=C(Nc2cccc(O)c2)C(=O)N1c1cccc(Cl)c1Cl
GI50 (TK-10 renal): 20.2 µM | TGI (TK-10 renal): 80 µM | GI50 (BT-549 breast): 24.5 µM | TGI (BT-549 breast): 61.2 µM | GI50 (HS 578T breast): 1.71 µM | TGI (HS 578T breast): 14.4 µM | GI50 (RPMI-8226 leukemia): 1.56 µM | TGI (RPMI-8226 leukemia): 16.2 µM | GI50 (MCF7 breast): 13.7 µM | TGI (MCF7 breast): 42.7 µM | GI50 (T-47D breast): 16.8 µM | TGI (T-47D breast): 86.3 µM | GI50 (DU-145 prostate): 22.7 µM | TGI (DU-145 prostate): 48 µM

COc1ccc(C#CCC(OC2OC(CO)C(O)C(O)C2O)C(O)c2ccc(OC)c(OC)c2)cc1OC (stereo not drawn)
TGI (SNB-78 CNS): > 100 µM | TGI (LXFL 529 NSCLC): > 100 µM | TGI (RPMI-8226 leukemia): > 100 µM | TGI (DMS 273 small cell lung): > 100 µM

C=C(CN1CCN(c2cccc(F)c2)CC1)c1ccc(C(=O)Nc2ccccc2N)cc1
GI50 (TK-10 renal): 5.95 µM | TGI (TK-10 renal): > 100 µM | GI50 (BT-549 breast): 1.33 µM | TGI (BT-549 breast): 12.6 µM | GI50 (HS 578T breast): 2.61 µM | TGI (HS 578T breast): > 100 µM | GI50 (RPMI-8226 leukemia): 0.429 µM | TGI (RPMI-8226 leukemia): 2.89 µM | GI50 (MCF7 breast): 0.691 µM | TGI (MCF7 breast): > 100 µM | GI50 (T-47D breast): 4.38 µM | TGI (T-47D breast): > 100 µM | GI50 (DU-145 prostate): 1.8 µM | TGI (DU-145 prostate): 7.16 µM
